Measurements from ChEMBL document CHEMBL1138982 (Bioorg Med Chem Lett, 2006).
pKi: −log10 of the molar value.

Molecular target: Substance-P receptor (Homo sapiens, UniProt P25103)
Assay: Displacement of [3H]-labeled substance P from cloned human NK1 receptor expressed in CHO cells
Assay type: cell-based
Conditions: not given

Substance-P receptor, sequence (P25103 whole entry): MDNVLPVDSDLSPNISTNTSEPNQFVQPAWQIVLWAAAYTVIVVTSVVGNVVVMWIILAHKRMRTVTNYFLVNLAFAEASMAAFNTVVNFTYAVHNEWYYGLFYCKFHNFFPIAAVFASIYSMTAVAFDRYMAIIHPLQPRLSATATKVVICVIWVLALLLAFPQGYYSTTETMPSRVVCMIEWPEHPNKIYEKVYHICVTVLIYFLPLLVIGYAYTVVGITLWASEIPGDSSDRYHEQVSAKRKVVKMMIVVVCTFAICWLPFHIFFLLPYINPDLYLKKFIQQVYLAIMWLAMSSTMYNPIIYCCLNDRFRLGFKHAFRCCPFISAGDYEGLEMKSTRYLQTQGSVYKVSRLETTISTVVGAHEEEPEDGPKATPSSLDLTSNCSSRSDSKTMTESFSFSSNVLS

SMILES	pKi
CC(C)(NC(=O)c1ccccc1-c1ccccc1)c1cc(C(F)(F)F)cc(C(F)(F)F)c1	< 5.00
CN(C(=O)C(C)(C)c1cc(C(F)(F)F)cc(C(F)(F)F)c1)c1ccccc1-c1ccccc1	7.17
FC(F)(F)c1cc(CNCc2ccccc2-c2ccccc2)cc(C(F)(F)F)c1	6.43
CN(C(=O)Cc1cc(C(F)(F)F)cc(C(F)(F)F)c1)c1ccccc1-c1ccccc1	6.25
Cc1ccccc1-c1cc(N2CCN(C)CC2)ccc1C(=O)N(C)Cc1cc(C(F)(F)F)cc(C(F)(F)F)c1	8.85
Cc1ccccc1-c1cnc(N2CCN(C)CC2)nc1N(C)C(=O)C(C)(C)c1cc(C(F)(F)F)cc(C(F)(F)F)c1	8.96
Cc1onc(-c2c(Cl)cccc2Cl)c1/C=N/Nc1c(Cl)cncc1Cl	7.82
Cc1ccccc1-c1cc(N2CCS(=O)(=O)CC2)ncc1N(C)C(=O)C(C)(C)c1cc(C(F)(F)F)cc(C(F)(F)F)c1	8.89
CN(Cc1cc(C(F)(F)F)cc(C(F)(F)F)c1)C(=O)c1ccccc1-c1ccccc1	7.29
CN(C(=O)c1ccccc1-c1ccccc1)C(C)(C)c1cc(C(F)(F)F)cc(C(F)(F)F)c1	6.53
Cc1ccccc1-c1ccc(N2CCN(C)CC2)nc1N(C)C(=O)C(C)(C)c1cc(C(F)(F)F)cc(C(F)(F)F)c1	8.70
Cc1ccccc1-c1ccc(N2CCN(C)CC2)nc1C(=O)N(C)Cc1cc(C(F)(F)F)cc(C(F)(F)F)c1	8.21
CN(Cc1cc(C(F)(F)F)cc(C(F)(F)F)c1)C(=O)c1ccccc1-c1ccccc1Cl	7.66
FC(F)(F)c1cc(COCc2ccccc2-c2ccccc2)cc(C(F)(F)F)c1	6.65
Cc1ccccc1-c1cccnc1N(C)C(=O)C(C)(C)c1cc(C(F)(F)F)cc(C(F)(F)F)c1	8.40
CN(Cc1cc(C(F)(F)F)cc(C(F)(F)F)c1)C(=O)c1ccccc1-c1ccccc1Br	7.35

SMILES	pKi
Cc1ccccc1-c1ccccc1/C=N/Nc1c(Cl)cncc1Cl	6.50
Cc1ccccc1-c1cnccc1N(C)C(=O)C(C)(C)c1cc(C(F)(F)F)cc(C(F)(F)F)c1	8.48
Cc1ccccc1-c1cnccc1C(=O)N(C)Cc1cc(C(F)(F)F)cc(C(F)(F)F)c1	8.34
Clc1cncc(Cl)c1N/N=C/c1ccccc1-c1ccccc1Br	7.31
Clc1cncc(Cl)c1N/N=C/c1ccccc1-c1ccccc1	6.03
Cc1ccccc1-c1nc(N2CCN(C)CC2)ncc1N(C)C(=O)C(C)(C)c1cc(C(F)(F)F)cc(C(F)(F)F)c1	9.36
Cc1ccccc1-c1nc(N2CCN(C)CC2)ncc1C(=O)N(C)Cc1cc(C(F)(F)F)cc(C(F)(F)F)c1	8.77
Cc1ccccc1-c1cnc(N2CCN(C)CC2)cc1N(C)C(=O)C(C)(C)c1cc(C(F)(F)F)cc(C(F)(F)F)c1	8.77
CN(Cc1cc(C(F)(F)F)cc(C(F)(F)F)c1)Cc1ccccc1-c1ccccc1	6.14
Clc1ccccc1-c1ccccc1/C=N/Nc1c(Cl)cncc1Cl	6.76
O=C(NCc1cc(C(F)(F)F)cc(C(F)(F)F)c1)c1ccccc1-c1ccccc1	< 5.00
Cc1ccccc1-c1cccnc1C(=O)N(C)Cc1cc(C(F)(F)F)cc(C(F)(F)F)c1	8.42
Clc1cncc(Cl)c1N/N=C/c1ccccc1-c1c(Cl)cccc1Cl	7.03
Cc1ccccc1-c1ccncc1C(=O)N(C)Cc1cc(C(F)(F)F)cc(C(F)(F)F)c1	8.07
Cc1ccccc1-c1cc(N2CCN(C)CC2)ncc1N(C)C(=O)C(C)(C)c1cc(C(F)(F)F)cc(C(F)(F)F)c1 [NETUPITANT]	9.02
Cc1ccccc1-c1cc(N2CCC(O)CC2)ncc1N(C)C(=O)C(C)(C)c1cc(C(F)(F)F)cc(C(F)(F)F)c1	9.40

Tested on: Gerbil, jird
Assay: Inhibition of GR-73632 induced foot tapping in gerbil, po
Assay type: functional
Conditions: Meriones, read-out: ID50 (the source's name)

SMILES	ED50
Cc1ccccc1-c1cc(N2CCOCC2)ncc1N(C)C(=O)C(C)(C)c1cc(C(F)(F)F)cc(C(F)(F)F)c1 [BEFETUPITANT]	0.2 mg/kg
Cc1ccccc1-c1cc(N2CCS(=O)(=O)CC2)ncc1N(C)C(=O)C(C)(C)c1cc(C(F)(F)F)cc(C(F)(F)F)c1	0.8 mg/kg
Cc1ccccc1-c1cc(N2CCN(C)CC2)ncc1N(C)C(=O)C(C)(C)c1cc(C(F)(F)F)cc(C(F)(F)F)c1 [NETUPITANT]	0.5 mg/kg
Cc1ccccc1-c1cc(N2CCC(O)CC2)ncc1N(C)C(=O)C(C)(C)c1cc(C(F)(F)F)cc(C(F)(F)F)c1	0.5 mg/kg
